Measurements as given in patent publication US20220081434A1, “DIHYDROISOQUINOLINE COMPOUND” (SUZHOU ARK BIOPHARMACEUTICAL CO., LTD., priority 2019, published 2022).

What follows are molecules tested on hepatitis B surface antigen (HBsAg) (assay: Determination of hepatitis B surface antigen (HBsAg) in HepG2.2.15 cell supernatant). Conditions: Hepatitis B virus, HepG2.2.15, 96 h, read-out: HBsAg inhibitory activity IC50.
Assay type: cell-based, hepatitis B virus (HepG2.2.15 cells)
Protocol: The full genome of HBV was inserted into an […] cell, which could therefore express HBV continuously (Sells et al, Proc Natl Acad Sci USA. 1987 February; 84 (4):1005-9). The culture condition was DMEM medium containing 10% serum and […] G418. Cells were placed in an incubator containing 5% CO2 and cultured at 37° C.
HepG2.2.15 cells were seeded into a 96-well culture plate at a density of 3×10^4 cells/well. On the next day, the drug dissolved in DMSO was subjected to a 5-fold dilution and then added to the cells. 0.5% DMSO was added separately as control. The supernatant was collected after 4 days of drug action, and the content of hepatitis B surface antigen was determined.
The determination of hepatitis B surface antigen was carried out by using a kit for quantitative determination of hepatitis B virus surface antigen (chemiluminescence method). The specific operations were as follows. 50 μL cell culture supernatant was taken and transferred to the assay plate. 50 μL of enzyme-linked reagent was added thereto and the assay plate was sealed. Incubation was carried out at room temperature for 1 hour. Afterwards, the assay plate was washed six times with PBS, and finally, the residual liquid was removed by shaking the plate. 25 μL of substrates A and B were added respectively, and the determination was conducted by using a microplate reader (Tecan Infinite® F200) after ten minutes of reaction. IC50 was calculated after fitting the dose-response curve.

For `COc1cc2c(cc1-c1cnc(N3CCC(O)CC3)s1)CC(C(C)(C)C)n1cc(C(=O)O)c(=O)cc1-2` (stereo not drawn) [Example 1, 6-tert-butyl-9-[2-(4-hydroxypiperidin-1-yl)thiazol-5-yl]-10-methoxy-2-oxo-6,7-dihydro-2H-pyrido[2,1-a]isoquinoline-3-carboxylic Acid], which IC50 is on record?
The IC50 was 0.33 nM.

Which IC50 does the source give for `COc1cc2c(cc1-c1cnc(N3CCC3)s1)CC(C(C)(C)C)n1cc(C(=O)O)c(=O)cc1-2` (stereo not drawn) [Example 3, 9-[2-(azetidin-1-yl)thiazol-5-yl]-6-tert-butyl-10-methoxy-2-oxo-6,7-dihydro-2H-pyrido[2,1-a]isoquinoline-3-carboxylic Acid] here?
The IC50 was 0.07 nM.

How did the IC50 turn out when `COc1cc2c(cc1-c1cnc(N3CCOCC3)s1)CC(C(C)(C)C)n1cc(C(=O)O)c(=O)cc1-2` (stereo not drawn) [Example 5, 6-tert-butyl-10-methoxy-9-(2-morpholinothiazol-5-yl)-2-oxo-6,7-dihydro-2H-pyrido[2,1-a]isoquinoline-3-carboxylic Acid] was run?
The IC50 was 0.3 nM.

For `COc1cc2c(cc1-c1cnc(N(C)C)s1)CC(C(C)(C)C)n1cc(C(=O)O)c(=O)cc1-2` (stereo not drawn) [Example 6, 6-tert-butyl-9-[2-(dimethylamino)thiazol-5-yl]-10-methoxy-2-oxo-6,7-dihydro-2H-pyrido[2,1-a]isoquinoline-3-carboxylic Acid], which IC50 is on record?
Its IC50 is 0.3 nM.

`COc1cc2c(cc1-c1cnc(N3CCC(OC)CC3)s1)CC(C(C)(C)C)n1cc(C(=O)O)c(=O)cc1-2` (stereo not drawn) [Example 8, 6-tert-butyl-10-methoxy-9-[2-(4-methoxypiperidin-1-yl)thiazol-5-yl]-2-oxo-6,7-dihydro-2H-pyrido[2,1-a]isoquinoline-3-carboxylic Acid] was tested. Which IC50 did it give?
The IC50 was 0.2 nM.

With `COc1ncc(-c2cc3c(cc2OC)-c2cc(=O)c(C(=O)O)cn2C(C(C)(C)C)C3)s1` (stereo not drawn) [Example 12, 6-tert-butyl-10-methoxy-9-(2-methoxythiazol-5-yl)-2-oxo-6,7-dihydro-2H-pyrido[2,1-a]isoquinoline-3-carboxylic Acid] as the molecule, how does the IC50 read?
The IC50 was 0.45 nM.

For `CCOCc1ncc(-c2cc3c(cc2OC)-c2cc(=O)c(C(=O)O)cn2C(C(C)(C)C)C3)s1` (stereo not drawn) [Example 14, 6-tert-butyl-9-[2-(ethoxymethyl)thiazol-5-yl]-10-methoxy-2-oxo-6,7-dihydro-2H-pyrido[2,1-a]isoquinoline-3-carboxylic Acid], which IC50 is on record?
The IC50 was 0.2 nM.

Which IC50 does the source give for `COc1cc2c(cc1-c1cnc(C(C)OC)s1)CC(C(C)(C)C)n1cc(C(=O)O)c(=O)cc1-2` (stereo not drawn) [Example 15, 6-tert-butyl-10-methoxy-9-[2-(1-methoxyethyl)thiazol-5-yl]-2-oxo-6,7-dihydro-2H-pyrido[2,1-a]isoquinoline-3-carboxylic Acid] here?
Its IC50 is 0.2 nM.

With `COc1cc2c(cc1-c1cnc(C(C)(C)OC)s1)CC(C(C)(C)C)n1cc(C(=O)O)c(=O)cc1-2` (stereo not drawn) [Example 17, 6-tert-butyl-10-methoxy-9-[2-(2-methoxypropan-2-yl)thiazol-5-yl]-2-oxo-6,7-dihydro-2H-pyrido[2,1-a]isoquinoline-3-carboxylic Acid] as the molecule, how does the IC50 read?
Its IC50 is 0.3 nM.

`CCNC(=O)c1ncc(-c2cc3c(cc2OC)-c2cc(=O)c(C(=O)O)cn2C(C(C)(C)C)C3)s1` (stereo not drawn) [Example 20, 6-tert-butyl-9-[2-(ethylcarbamoyl)thiazol-5-yl]-10-methoxy-2-oxo-6,7-dihydro-2H-pyrido[2,1-a]isoquinoline-3-carboxylic Acid] was tested. Which IC50 did it give?
The IC50 was 0.3 nM.

With `COCCOc1ncc(-c2cc3c(cc2OC)-c2cc(=O)c(C(=O)O)cn2C(C(C)(C)C)C3)s1` (stereo not drawn) [Example 21, 6-tert-butyl-10-methoxy-9-[2-(2-methoxyethoxy)thiazol-5-yl]-2-oxo-6,7-dihydro-2H-pyrido[2,1-a]isoquinoline-3-carboxylic Acid] as the molecule, how does the IC50 read?
The IC50 was 0.3 nM.

How did the IC50 turn out when `COCCNC(=O)c1ncc(-c2cc3c(cc2OC)-c2cc(=O)c(C(=O)O)cn2C(C(C)(C)C)C3)s1` (stereo not drawn) [Example 22, 6-tert-butyl-10-methoxy-9-{2-[(2-methoxyethyl)carbamoyl]thiazol-5-yl}-2-oxo-6,7-dihydro-2H-pyrido[2,1-a]isoquinoline-3-carboxylic Acid] was run?
The IC50 was 0.4 nM.
